Data as given in ChEMBL document CHEMBL5506008, “Synthesis and biological evaluation of 1-phenyl-tetrahydro-β-carboline-based first dual PRMT5/EGFR inhibitors as potential anticancer agents” (Eur J Med Chem, 2024).
pIC50: −log10 of the molar value. Active and inactive are the calls of the source. The rule behind the calls is not given here.

What was measured:
[1] = molecular target: T1, Protein arginine N-methyltransferase 5 (Homo sapiens, UniProt O14744); assay: Inhibition of PRMT5 (unknown origin) by radiometric-based scintillation proximity assay
T1 sequence (O14744 whole entry): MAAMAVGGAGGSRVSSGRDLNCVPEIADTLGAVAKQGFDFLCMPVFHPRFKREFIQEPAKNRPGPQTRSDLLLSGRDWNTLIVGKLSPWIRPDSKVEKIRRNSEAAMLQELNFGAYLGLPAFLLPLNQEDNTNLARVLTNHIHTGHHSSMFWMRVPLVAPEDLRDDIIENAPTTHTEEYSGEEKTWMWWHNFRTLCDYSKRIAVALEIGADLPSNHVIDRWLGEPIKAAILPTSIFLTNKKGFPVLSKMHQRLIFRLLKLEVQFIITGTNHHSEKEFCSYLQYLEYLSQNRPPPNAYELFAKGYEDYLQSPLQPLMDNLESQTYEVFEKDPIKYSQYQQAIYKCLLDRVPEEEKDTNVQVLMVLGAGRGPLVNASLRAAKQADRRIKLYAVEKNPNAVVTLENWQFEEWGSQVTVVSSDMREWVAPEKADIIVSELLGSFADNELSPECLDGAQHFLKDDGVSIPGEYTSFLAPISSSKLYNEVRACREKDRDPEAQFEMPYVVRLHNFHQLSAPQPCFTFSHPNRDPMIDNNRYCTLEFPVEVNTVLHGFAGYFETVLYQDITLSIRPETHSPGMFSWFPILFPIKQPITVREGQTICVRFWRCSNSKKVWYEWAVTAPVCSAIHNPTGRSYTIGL

[2] = molecular target: Protein arginine N-methyltransferase 1 (Homo sapiens, UniProt Q99873); assay: Inhibition of PRMT1 (unknown origin) using [3H]SAM as substrate preincubated for 15 mins followed by substrate addition and measured after 60 mins by microbeta scintillation counting analysis
Sequence of Protein arginine N-methyltransferase 1 (Q99873 whole entry, the tested form may be a part): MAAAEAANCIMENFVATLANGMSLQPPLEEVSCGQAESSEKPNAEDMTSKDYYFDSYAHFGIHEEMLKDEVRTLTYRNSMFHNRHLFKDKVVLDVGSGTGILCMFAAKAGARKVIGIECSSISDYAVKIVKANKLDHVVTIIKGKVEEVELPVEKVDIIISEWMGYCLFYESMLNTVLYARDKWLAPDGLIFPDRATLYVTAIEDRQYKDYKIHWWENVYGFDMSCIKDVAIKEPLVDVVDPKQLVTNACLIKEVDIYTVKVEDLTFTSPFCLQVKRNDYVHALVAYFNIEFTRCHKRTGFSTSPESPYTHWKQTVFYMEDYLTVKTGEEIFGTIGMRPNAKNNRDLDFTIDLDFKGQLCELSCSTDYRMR

[3] = molecular target: Receptor tyrosine-protein kinase erbB-4 (Homo sapiens, UniProt Q15303); assay: Inhibition of wild type GST-tagged HER4 catalytic domain (unknown origin) expressed in insect cells using poly(Glu-Tyr) as substrate incubated for 6 mins by ELISA; design: species or system Insect cell
Sequence of Receptor tyrosine-protein kinase erbB-4 (Q15303 whole entry, the tested form may be a part): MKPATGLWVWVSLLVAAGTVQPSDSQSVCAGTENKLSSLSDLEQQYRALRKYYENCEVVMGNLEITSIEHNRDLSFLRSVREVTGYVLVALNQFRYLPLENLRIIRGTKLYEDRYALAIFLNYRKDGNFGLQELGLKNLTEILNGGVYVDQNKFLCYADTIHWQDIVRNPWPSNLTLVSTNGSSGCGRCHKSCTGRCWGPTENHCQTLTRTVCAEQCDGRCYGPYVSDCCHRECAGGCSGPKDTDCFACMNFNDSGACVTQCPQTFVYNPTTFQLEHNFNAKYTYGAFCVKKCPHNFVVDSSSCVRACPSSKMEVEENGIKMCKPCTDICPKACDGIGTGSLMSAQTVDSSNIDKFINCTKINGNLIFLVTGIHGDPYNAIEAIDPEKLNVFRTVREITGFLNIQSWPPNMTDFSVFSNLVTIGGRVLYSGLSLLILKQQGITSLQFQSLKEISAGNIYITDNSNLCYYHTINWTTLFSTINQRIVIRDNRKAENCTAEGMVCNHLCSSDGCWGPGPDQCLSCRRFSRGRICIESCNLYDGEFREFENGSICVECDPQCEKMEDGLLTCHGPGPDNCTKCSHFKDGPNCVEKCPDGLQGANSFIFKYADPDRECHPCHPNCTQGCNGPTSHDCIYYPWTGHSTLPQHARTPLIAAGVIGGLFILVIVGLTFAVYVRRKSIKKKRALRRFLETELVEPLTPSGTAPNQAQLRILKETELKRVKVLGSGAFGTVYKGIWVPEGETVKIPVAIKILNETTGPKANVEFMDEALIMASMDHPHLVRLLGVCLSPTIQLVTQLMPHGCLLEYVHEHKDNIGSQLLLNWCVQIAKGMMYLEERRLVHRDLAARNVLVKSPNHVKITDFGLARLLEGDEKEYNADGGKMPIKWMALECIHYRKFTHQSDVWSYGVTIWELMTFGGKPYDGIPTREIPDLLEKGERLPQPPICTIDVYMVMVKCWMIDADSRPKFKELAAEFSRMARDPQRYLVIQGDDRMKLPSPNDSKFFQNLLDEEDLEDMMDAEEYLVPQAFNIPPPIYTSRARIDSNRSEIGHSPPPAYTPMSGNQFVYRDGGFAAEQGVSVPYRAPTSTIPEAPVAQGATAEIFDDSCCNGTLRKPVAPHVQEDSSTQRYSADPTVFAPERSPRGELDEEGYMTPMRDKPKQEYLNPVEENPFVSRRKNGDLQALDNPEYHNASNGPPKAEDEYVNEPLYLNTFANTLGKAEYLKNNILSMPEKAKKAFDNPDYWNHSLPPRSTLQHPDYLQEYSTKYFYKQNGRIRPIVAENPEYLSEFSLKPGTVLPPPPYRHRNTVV

A549 = assay: Antiproliferative activity against human A549 cells assessed as inhibition of cell growth by CCK-8 assay
MCF7 [4] = assay: Antiproliferative activity against human MCF7 cells assessed as inhibition of cell growth by CCK-8 assay
HeLa = assay: Antiproliferative activity against human HeLa cells assessed as inhibition of cell growth by CCK-8 assay
MDA-MB-231 = assay: Antiproliferative activity against human MDA-MB-231 cells assessed as inhibition of cell growth by CCK-8 assay
HepG2 = assay: Antiproliferative activity against human HepG2 cells assessed as inhibition of cell growth by CCK-8 assay
[5] = molecular target: T1, Protein arginine N-methyltransferase 5; assay: Inhibition of PRMT5 in human MCF7 cells using SmD3 as substrate assessed as reduction in symmetric arginine dimethylation by measuring reduction in SmD3me2 level incubated for 72 hrs by Western blot analysis; type: cell-based; settings: dose 3.75-15 µM
[6] = Volume of distribution in male Sprague-Dawley rat at 10 mg/kg, po administered as single dose by LC-MS/MS analysis; type: ADME, organism-based; settings: in vivo
MCF7 [7] = assay: Induction of cell cycle arrest in human MCF7 cells assessed as accumulation of cells at G1 phase at 3.75 uM incubated for 48 hrs by PI/RNase staining based flow cytometry analysis (reference value: 48.01%); type: functional
MCF7 [8] = assay: Induction of cell cycle arrest in human MCF7 cells assessed as accumulation of cells at S phase at 3.75 uM incubated for 48 hrs by PI/RNase staining based flow cytometry analysis (reference value: 44.87%); type: functional
MCF7 [9] = assay: Induction of cell cycle arrest in human MCF7 cells assessed as accumulation of cells at G2 phase at 3.75 uM incubated for 48 hrs by PI/Rnase staining based flow cytometry analysis (reference value: […]%); type: functional
MCF7 [10] = assay: Induction of cell cycle arrest in human MCF7 cells assessed as accumulation of cells at G1 phase at 7.5 uM incubated for 48 hrs by PI/RNase staining based flow cytometry analysis (reference value: 48.01%); type: functional
MCF7 [11] = assay: Induction of cell cycle arrest in human MCF7 cells assessed as accumulation of cells at S phase at 7.5 uM incubated for 48 hrs by PI/RNase staining based flow cytometry analysis (reference value: 44.87%); type: functional
MCF7 [12] = assay: Induction of cell cycle arrest in human MCF7 cells assessed as accumulation of cells at G2 phase at 7.5 uM incubated for 48 hrs by PI/Rnase staining based flow cytometry analysis (reference value: […]%); type: functional
MCF7 [13] = assay: Induction of apoptosis in human MCF7 cells assessed as live cells at 3.75 uM measured after 48 hrs by Annexin V-FITC staining based flow cytometry analysis (reference value: 99.26%); type: functional
MCF7 [14] = assay: Induction of apoptosis in human MCF7 cells assessed as early apoptotic cells at 3.75 uM measured after 48 hrs by Annexin V-FITC staining based flow cytometry analysis (reference value: 0.58%); type: functional
MCF7 [15] = assay: Induction of apoptosis in human MCF7 cells assessed as late apoptotic cells at 3.75 uM measured after 48 hrs by Annexin V-FITC staining based flow cytometry analysis (reference value: 0.14%); type: functional
MCF7 [16] = assay: Induction of apoptosis in human MCF7 cells assessed as dead cells at 3.75 uM measured after 48 hrs by Annexin V-FITC staining based flow cytometry analysis (reference value: 0.02%); type: functional
MCF7 [17] = assay: Induction of apoptosis in human MCF7 cells assessed as live cells at 7.5 uM measured after 48 hrs by Annexin V-FITC staining based flow cytometry analysis (reference value: 99.26%); type: functional
MCF7 [18] = assay: Induction of apoptosis in human MCF7 cells assessed as early apoptotic cells at 7.5 uM measured after 48 hrs by Annexin V-FITC staining based flow cytometry analysis (reference value: 0.58%); type: functional
MCF7 [19] = assay: Induction of apoptosis in human MCF7 cells assessed as late apoptotic cells at 7.5 uM measured after 48 hrs by Annexin V-FITC staining based flow cytometry analysis (reference value: 0.14%); type: functional
MCF7 [20] = assay: Induction of apoptosis in human MCF7 cells assessed as dead cells at 7.5 uM measured after 48 hrs by Annexin V-FITC staining based flow cytometry analysis (reference value: 0.02%); type: functional
MCF7 [21] = assay: Induction of apoptosis in human MCF7 cells assessed as live cells at 15 uM measured after 48 hrs by Annexin V-FITC staining based flow cytometry analysis (reference value: 99.26%); type: functional
MCF7 [22] = assay: Induction of apoptosis in human MCF7 cells assessed as early apoptotic cells at 15 uM measured after 48 hrs by Annexin V-FITC staining based flow cytometry analysis (reference value: 0.58%); type: functional
MCF7 [23] = assay: Induction of apoptosis in human MCF7 cells assessed as late apoptotic cells at 15 uM measured after 48 hrs by Annexin V-FITC staining based flow cytometry analysis (reference value: 0.14%); type: functional
MCF7 [24] = assay: Induction of apoptosis in human MCF7 cells assessed as dead cells at 15 uM measured after 48 hrs by Annexin V-FITC staining based flow cytometry analysis (reference value: 0.02%); type: functional
[25] = Metabolic stability in human liver microsomes assessed as compound remaining at […] measured after 30 mins in presence of NADPH by LC-MS/MS analysis; type: ADME, Microsome; settings: read-out: Stability
[26] = Metabolic stability in rat liver microsomes assessed as compound remaining at […] measured after 30 mins in presence of NADPH by LC-MS/MS analysis; type: ADME, Microsome; settings: read-out: Stability
[27] = AUC (0 to 24 hrs) in male Sprague-Dawley rat at 10 mg/kg, po administered as single dose by LC-MS/MS analysis; type: ADME, organism-based; settings: in vivo
[28] = AUC (0 to infinity) in male Sprague-Dawley rat at 10 mg/kg, po administered as single dose by LC-MS/MS analysis; type: ADME, organism-based; settings: in vivo
[29] = Half life in male Sprague-Dawley rat at 10 mg/kg, po administered as single dose by LC-MS/MS analysis; type: ADME, organism-based; settings: in vivo
[30] = Tmax in male Sprague-Dawley rat at 10 mg/kg, po administered as single dose by LC-MS/MS analysis; type: ADME, organism-based; settings: in vivo
[31] = Cmax in male Sprague-Dawley rat at 10 mg/kg, po administered as single dose by LC-MS/MS analysis; type: ADME, organism-based; settings: in vivo
[32] = Clearance in male Sprague-Dawley rat at 10 mg/kg, po administered as single dose by LC-MS/MS analysis; type: ADME, organism-based; settings: in vivo
[33] = Oral bioavailability in male Sprague-Dawley rat at 10 mg/kg administered as single dose by LC-MS/MS analysis; type: ADME, organism-based; settings: in vivo
[34] = AUC (0 to 24 hrs) in male Sprague-Dawley rat at 2 mg/kg, iv administered via tail vein by LC-MS/MS analysis; type: ADME, organism-based; settings: in vivo
[35] = AUC (0 to infinity) in male Sprague-Dawley rat at 2 mg/kg, iv administered via tail vein by LC-MS/MS analysis; type: ADME, organism-based; settings: in vivo
[36] = Half life in male Sprague-Dawley rat at 2 mg/kg, iv administered via tail vein by LC-MS/MS analysis; type: ADME, organism-based; settings: in vivo
[37] = Cmax in male Sprague-Dawley rat at 2 mg/kg, iv administered via tail vein by LC-MS/MS analysis; type: ADME, organism-based; settings: in vivo
[38] = Clearance in male Sprague-Dawley rat at 2 mg/kg, iv administered via tail vein by LC-MS/MS analysis; type: ADME, organism-based; settings: in vivo
[39] = Volume of distribution in male Sprague-Dawley rat at 2 mg/kg, iv administered via tail vein by LC-MS/MS analysis; type: ADME, organism-based; settings: in vivo
[40] = Bioavailability in male Sprague-Dawley rat at 2 mg/kg, iv administered via tail vein by LC-MS/MS analysis; type: ADME, organism-based; settings: in vivo
MCF7 [41] = assay: Antitumor activity against orthotopic human MCF7 cells xenografted in CB17SCID mouse assessed as inhibition of tumor growth at 10 to 20 mg/kg, po qd administered once daily for 21 days starting from 3 days post tumor inoculation and measured every day by calipers method; type: functional, organism-based; settings: dose 10-20 mg/kg, time 21.0 day

With `COc1cc(C2NCCc3c2[nH]c2ccccc32)ccc1OCc1cc(C(F)(F)F)cc(C(F)(F)F)c1` (stereo not given) the pIC50 [1] was 4.81, the pIC50 [2] was under 4.00 and the pIC50 [3] was 4.06. For the same molecule, the pIC50 (A549) was 5.01, the pIC50 (MCF7 [4]) was 5.24 and the pIC50 (HeLa) was 5.10. For the same molecule, the pIC50 (MDA-MB-231) was 5.18, the pIC50 (HepG2) was 4.60 and the inhibition [5] was “Dose-Dependent Effect”. It also gave a Vd [6] of 38.5 L/kg, an Activity (MCF7 [7]) of 54.85% and an Activity (MCF7 [8]) of 40.55%. For the same molecule, the Activity (MCF7 [9]) was 4.25%, the Activity (MCF7 [10]) was 62.98% and the Activity (MCF7 [11]) was 36.77%. The Activity (MCF7 [12]) was 0.26%, the Activity (MCF7 [13]) was 98.07% and the Activity (MCF7 [14]) was 1.51%. The Activity (MCF7 [15]) was 0.4%, the Activity (MCF7 [16]) was 0.02% and the Activity (MCF7 [17]) was 97.31%. The Activity (MCF7 [18]) was 2.32%, the Activity (MCF7 [19]) was 0.37% and the Activity (MCF7 [20]) was 0%. For the same molecule, the Activity (MCF7 [21]) was 96.45%, the Activity (MCF7 [22]) was 3.07% and the Activity (MCF7 [23]) was 0.48%. For the same molecule, the Activity (MCF7 [24]) was 0.01%, the remaining at 0.5 h [25] was 85.9% and the remaining at 0.5 h [26] was 80.3%. The AUC(0-t) [27] was 1960 ng·h/mL, the AUC(0-inf) [28] was 2110 ng·h/mL and the half-life [29] was 5.7 h. The Tmax [30] was 2 h, the Cmax [31] was 167 ng/mL and the CL/F [32] was 78.3 mL/min/kg. It also gave a bioavailability [33] of 30.6%, an AUC(0-t) [34] of 1280 ng·h/mL and an AUC(0-inf) [35] of 1330 ng·h/mL. For the same molecule, the half-life [36] was 4.9 h, the Cmax [37] was 187 ng/mL and the clearance [38] was 25 mL/min/kg. The Vd [39] was 10.8 L/kg, the F [40] was 100% and the Activity (MCF7 [41]) was “Active”.
